For data set [1], the system named is SUDHL5 cells. Nature of the data set: Induction of caspase-3/7 activity in SUDHL5 cells (Assay 4). The data set is classed as cell-based. Summed up:
(§1)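 Read-out: Caspase-Glo 3/7 luminescence (1 h, 37 °C) after cells, plated overnight, were treated with compounds for 3 h at 37 °C. Signal corrected for cell-free medium background and expressed relative to DMSO control mean.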

For data set [2], the system named is SUDHL10 cells. Nature of the data set: Induction of cytotoxicity in SUDHL10 cells (Assay 6). The data set is classed as cell-based. The settings on record: 5 h, CellTiter-Glo, read-out: Cytotox SUDHL10 IC50 (median). The method in brief: (§2)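 Cells plated overnight at 37 °C, then exposed to compound for 5 h in a humidified incubator at 37 °C. Viability read by CellTiter-Glo luminescence after 15 min shaking at room temperature; cell-free medium served as control.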
In general terms: In ATP-based viability assays light output follows the ATP content of the culture.

Data set [3] deals with SUDHL10 cells. Nature of the data set: Induction of caspase-3/7 activity in SUDHL10 cells (Assay 4). The data set is classed as cell-based. Summed up:
as §1

In the next data set the target is BCL-2 (Homo sapiens (Human), UniProt P10415). As to the kind of experiment: Protein-protein interaction assay BCL-2/Bad BH3 peptide (BCL-2 assay, TR-FRET). It is filed as binding. The settings on record: read-out: BCL-2 Assay IC50 (median). As for the experimental part:
Assay 3 Protein-Protein Interaction Assay: BCL-2/Bad BH3 Peptide (BCL-2 Assay)
The dose-dependent inhibition by the compounds described in this invention of the interaction between BCL-2 and the BH3 domain of Bad (both human) was determined using a steady state binding competition assay with time-resolved fluorescence energy transfer (TR-FRET) readout. For that purpose BCL-2 (amino acids 1-211, C-terminal fused to a hexahistidine (6×His) tag (SEQ ID 5) and a synthetic Bad BH3-derived peptide of sequence Biotin-PEG2-PEG2-[…]-Nle-[…]-amide (SEQ ID 4) served as protein receptor and tracer ligand respectively. The recombinant BCL-2 protein (expressed in E. coli) was purchased from BPS Bioscience (San Diego, Calif., USA). The Bad BH3-derived peptide can be obtained from e.g. Biosyntan (Berlin, Germany).
In the assay 11 different concentrations of each compound (0.1 nM, 0.33 nM, 1.1 nM, 3.8 nM, 13 nM, 44 nM, 0.15 μM, 0.51 μM, 1.7 μM, 5.9 μM and 20 μM) were typically measured as duplicates in the same microtiter plate. For that, 100-fold concentrated DMSO solutions were prepared by serial dilutions (1:3.4) of a 2 mM stock solution in a clear, 384-well microtiter plate (Greiner Bio-One, Frickenhausen, Germany). From there, 50 nl were transferred in a dark test plate (Greiner Bio-One, Frickenhausen, Germany). The assay was initiated by addition of 2 μL of a 2,5-fold concentrated His-BCL-2 solution (usually for a 1 nM end concentration in 5 μL reaction volume) in aqueous assay buffer [50 mM Tris/HCl pH 7, 100 mM sodium chloride (NaCl), 50 mM potassium fluoride (KF), 0.005% Tween-20, 2 mM DTT, 0.1% bovine gamma globulin (BGG)] to the compounds in the assay plate. This was followed by a 10-minute incubation step at 22° C. for pre-equilibration of the putative complex between His-BCL-2 and the compounds. After that, 3 μL of a 1.67-fold concentrated solution (in assay buffer) consisting of Bad BH3-derived peptide (1 nM end concentration) and TR-FRET detection reagents [1.67 nM anti-His-Eu cryptate and 1.67 nM streptavidin-XL665 (both from Cisbio Bioassays, Codolet, France)], were added.
The mixture was incubated in the dark for one hour at 22° C. and then overnight at 4° C. The formation of BCL-2/Bad complexes was determined by measuring the resonance energy transfer of the anti-His-Eu-cryptate antibody to the streptavidin-XL665 present in the reaction. For that purpose, the fluorescence emission at 620 nm and 665 nm after excitation at 330-350 nm was measured in a TR-FRET measuring instrument, for instance a Rubystar or a Pherastar (both from BMG Lab Technologies, Offenburg, Germany) or a Viewlux (Perkin-Elmer). The ratio of the emission at 665 nm and at 622 nm was used as indicator of the amount of BCL-2/Bad complexes present.
The resulting data (ratio) were normalized, taking 0% inhibition as the mean value of control measurements (usually 32 data points) where all reagents were included. In this case 50 nl DMSO were used instead of compounds. […] IC50 values were determined by regression analysis based on a 4 parameter equation (minimum, maximum, IC50, Hill; Y=Max+(Min−Max)/(1+(X/IC50)^Hill) using the Screener Software (Genedata).
In general terms: Time-resolved FRET reads energy transfer from a long-lived donor to a nearby acceptor.

Data set [4] deals with SUDHL5 cells. As to the kind of experiment: Induction of cytotoxicity in SUDHL5 cells (Assay 6). The data set is classed as cell-based. The conditions noted are these: 5 h, CellTiter-Glo, read-out: Cytotox SUDHL5 IC50 (median). Summed up:
as §2

[5] abbreviates: Homo sapiens, SU-DHL-5, 3 h, caspase-3/7 induction, 3 h, read-out: Caspase SUDHL5 EC50 (median).
The mark [6] stands for this setting: Homo sapiens, SU-DHL10, 3 h, caspase-3/7 induction, 3 h, read-out: Caspase SUDHL10 EC50 (median).
Setting [7] is: caspase-3/7 induction, 3 h, read-out: Caspase SUDHL5 EC50 (median).
Setting [8] is: caspase-3/7 induction, 3 h, read-out: Caspase SUDHL10 EC50 (median).
[9] abbreviates: Homo sapiens, SU-DHL-5, 3 h, read-out: Caspase SUDHL5 EC50 (median), caspase-3/7 induction, 3 h.
[10] abbreviates: Homo sapiens, SU-DHL10, 3 h, read-out: Caspase SUDHL10 EC50 (median), caspase-3/7 induction, 3 h.
The mark [11] stands for this setting: read-out: Caspase SUDHL5 EC50 (median), caspase-3/7 induction, 3 h.
[12] abbreviates: read-out: Caspase SUDHL10 EC50 (median), caspase-3/7 induction, 3 h.

Molecules are shown by their SMILES. Where a name gives a salt, the structure may show the parent alone. Read-outs that look alike come from different tables or passages of the source.

In general, IC50 refers to the point on the concentration scale where inhibition reaches its midpoint.

Sequence of BCL-2 (P10415 1-211): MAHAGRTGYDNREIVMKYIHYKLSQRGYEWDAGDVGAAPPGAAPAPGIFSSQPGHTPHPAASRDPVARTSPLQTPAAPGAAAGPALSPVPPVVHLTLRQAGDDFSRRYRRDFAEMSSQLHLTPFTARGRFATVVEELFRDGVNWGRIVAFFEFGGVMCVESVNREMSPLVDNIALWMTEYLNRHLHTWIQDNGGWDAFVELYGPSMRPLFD

With `CCc1c2c(nn1C)C(CCCN1CCOCC1)OCCCCn1c(C(=O)O)c(CCCOc3cccc4cc(F)ccc34)c3ccc(Cl)c-2c31` (racemic) [Example 65, (rac)-4-chloro-3-ethyl-7-{3-[(6-fluoronaphthalen-1-yl)oxy]propyl}-2-methyl-(15-rac)-[3-(morpholin-4-yl)propyl]-2,10,11,12,13,15-hexahydropyrazolo[4′,3′:9,10][1,6]oxazacycloundecino[8,7,6-hi]indole-8-carboxylic Acid], the values for the EC50 in the data set with SUDHL5 cells [1] (setting [5]) and in the data set on SUDHL10 cells [3] (setting [6]) were 0.048 µM and 0.042 µM, respectively. Further, the IC50 in the data set on SUDHL10 cells [2] (Homo sapiens, SU-DHL10, 5 h) is 0.1 µM; at BCL-2 it was > 20 µM; with SUDHL5 cells [4] (Homo sapiens, SU-DHL-5, 5 h) it was 0.078 µM.

Regarding `CCc1c2c(nn1C)C(CCC(C)(C)O)OCCCCn1c(C(=O)O)c(CCCOc3cccc4cc(F)ccc34)c3ccc(Cl)c-2c31` (racemic) [Example 74, (rac)-4-chloro-3-ethyl-7-{3-[(6-fluoronaphthalen-1-yl)oxy]propyl}-(15-rac)-(3-hydroxy-3-methylbutyl)-2-methyl-2,10,11,12,13,15-hexahydropyrazolo[4′,3′:9,10][1,6]oxazacycloundecino[8,7,6-hi]indole-8-carboxylic Acid], the EC50 with SUDHL5 cells [1] (setting [5]) was found to be 0.045 µM; in the data set on SUDHL10 cells [3] (setting [6]), 0.033 µM. Moreover, the IC50 with SUDHL10 cells [2] (Homo sapiens, SU-DHL10, 5 h) stood at 0.055 µM; on BCL-2 it was 19.6 µM; in the data set with SUDHL5 cells [4] (Homo sapiens, SU-DHL-5, 5 h), 0.051 µM.

Take `CCc1c2c(nn1C)C(Cc1ccccc1)OCCCCn1c(C(=O)O)c(CCCOc3cccc4cc(F)ccc34)c3ccc(Cl)c-2c31` (racemic) [Example 92, (rac)-(rac-15)-benzyl-4-chloro-3-ethyl-7-{3-[(6-fluoro-1-naphthyl)oxy]propyl}-2-methyl-2,10,11,12,13,15-hexahydropyrazolo[4′,3′:9,10][1,6]oxazacycloundecino[8,7,6-hi]indole-8-carboxylic Acid]: the EC50 in the data set on SUDHL5 cells [1] (setting [5]) came to 0.96 µM; with SUDHL10 cells [3] (setting [6]) it was 1.1 µM. The concentration for half-maximal inhibition (IC50) was determined as 1.4 µM in the data set on SUDHL10 cells [2] (Homo sapiens, SU-DHL10, 5 h); 12.2 µM at BCL-2; 1.2 µM in the data set on SUDHL5 cells [4] (Homo sapiens, SU-DHL-5, 5 h).

Turning to `Cc1c2c(nn1C)C(CCN1CCOCC1)OCCCCn1c(C(=O)O)c(CCCOc3cccc4ccccc34)c3ccc(Cl)c-2c31` (single isomer, unassigned; enantiomer 1) [Example 14, 4-chloro-2,3-dimethyl-15-[2-(morpholin-4-yl)ethyl]-7-{3-[(naphthalen-1-yl)oxy]propyl}-2,10,11,12,13,15-hexahydropyrazolo[4′,3′:9,10][1,6]oxazacycloundecino[8,7,6-hi]indole-8-carboxylic Acid (Enantiomer 1)], the EC50 with SUDHL5 cells [1] (setting [7]) turned out to be 0.0098 µM; in the data set with SUDHL10 cells [3] (setting [8]) it was 0.031 µM. Also, the results for the concentration for half-maximal inhibition (IC50) with SUDHL10 cells [2], on BCL-2 and with SUDHL5 cells [4] were 0.034 µM, > 20 µM and 0.023 µM, respectively.

Regarding `Cc1c2c(nn1C)C(CCN1CCOCC1)OCCCCn1c(C(=O)O)c(CCCOc3cccc4cc(F)ccc34)c3ccc(Cl)c-2c31` (single isomer, unassigned; enantiomer 1) [Example 17, 4-chloro-7-{3-[(6-fluoronaphthalen-1-yl)oxy]propyl}-2,3-dimethyl-15-[2-(morpholin-4-yl)ethyl]-2,10,11,12,13,15-hexahydropyrazolo[4′,3′:9,10][1,6]oxazacycloundecino[8,7,6-hi]indole-8-carboxylic Acid—N-ethylethanamine (Enantiomer 1)], the EC50 with SUDHL5 cells [1] (setting [9]) was 0.0058 µM; with SUDHL10 cells [3] (setting [10]), 0.0097 µM. In addition, the IC50 in the data set with SUDHL10 cells [2] (Homo sapiens, SU-DHL10, 5 h) is 0.0093 µM; at BCL-2 it was > 20 µM; in the data set with SUDHL5 cells [4] (Homo sapiens, SU-DHL-5, 5 h), 0.011 µM.

`Cc1c2c(nn1C)C(CCN1CCOCC1)OCCCCn1c(C(=O)O)c(CCCOc3cccc4cc(F)ccc34)c3ccc(F)c-2c31` (single isomer, unassigned; enantiomer 1) [Example 20, 4-fluoro-7-{3-[(6-fluoronaphthalen-1-yl)oxy]propyl}-2,3-dimethyl-15-[2-(morpholin-4-yl)ethyl]-2,10,11,12,13,15-hexahydropyrazolo[4′,3′:9,10][1,6]oxazacycloundecino[8,7,6-hi]indole-8-carboxylic Acid—N-ethylethanamine (Enantiomer 1)]: the results for the EC50 in the data set with SUDHL5 cells [1] (setting [9]) and in the data set on SUDHL10 cells [3] (setting [10]) were 0.029 µM and 0.032 µM, respectively. In addition, the half-maximal inhibitory concentration (IC50) in the data set on SUDHL10 cells [2] (Homo sapiens, SU-DHL10, 5 h) was 0.041 µM; on BCL-2, > 20 µM; in the data set on SUDHL5 cells [4] (Homo sapiens, SU-DHL-5, 5 h), 0.033 µM.

Consider `CCC1OCCCCn2c(C(=O)O)c(CCCOc3cccc4ccccc34)c3ccc(Cl)c(c32)-c2c1nn(C)c2C` (single isomer, unassigned; enantiomer 1) [Example 29, (+)-4-chloro-15-ethyl-2,3-dimethyl-7-{3-[(naphthalen-1-yl)oxy]propyl}-2,10,11,12,13,15-hexahydropyrazolo[4′,3′:9,10][1,6]oxazacycloundecino[8,7,6-hi]indole-8-carboxylic Acid—N-ethylethanamine Salt (Enantiomer 1)], for which the results for the EC50 with SUDHL5 cells [1] (setting [11]) and in the data set on SUDHL10 cells [3] (setting [12]) were 0.84 µM and 3.7 µM, respectively. Moreover, the IC50 is 3.9 µM with SUDHL10 cells [2], > 20 µM on BCL-2 and 1.1 µM with SUDHL5 cells [4].

`Cc1c2c(nn1C)C(CCO)OCCCCn1c(C(=O)O)c(CCCOc3cccc4ccccc34)c3ccc(Cl)c-2c31` (single isomer, unassigned; enantiomer 1) [Example 31, (+)-4-chloro-15-(2-hydroxyethyl)-2,3-dimethyl-7-{3-[(naphthalen-1-yl)oxy]propyl}-2,10,11,12,13,15-hexahydropyrazolo[4′,3′:9,10][1,6]oxazacycloundecino[8,7,6-hi]indole-8-carboxylic Acid (Enantiomer 1)]: the EC50 in the data set on SUDHL5 cells [1] (setting [7]) is 0.28 µM; with SUDHL10 cells [3] (setting [8]) it was 0.24 µM. The IC50 is 0.35 µM with SUDHL10 cells [2], > 20 µM on BCL-2 and 0.37 µM in the data set with SUDHL5 cells [4].

Take `Cc1c2c(nn1C)C(C1CC1)OCCCCn1c(C(=O)O)c(CCCOc3cccc4ccccc34)c3ccc(Cl)c-2c31` (single isomer, unassigned; enantiomer 1) [Example 35, (+)-4-chloro-15-cyclopropyl-2,3-dimethyl-7-{3-[(naphthalen-1-yl)oxy]propyl}-2,10,11,12,13,15-hexahydropyrazolo[4′,3′:9,10][1,6]oxazacycloundecino[8,7,6-hi]indole-8-carboxylic Acid N-ethylethanamine Salt (Enantiomer 1)]: the EC50 came out at 2.1 µM in the data set with SUDHL5 cells [1] (setting [11]) and 5.9 µM in the data set on SUDHL10 cells [3] (setting [12]). For the same molecule, the 50% inhibitory concentration (IC50) was 6.7 µM with SUDHL10 cells [2], > 20 µM on BCL-2 and 2 µM in the data set on SUDHL5 cells [4].
